The structures appear in SMILES notation. Where two headings read alike, the source gives them in different places.

The test deals with IL-6. Briefly: TNF-α-induced IL-6 production determined by IL-6 ELISA in HAEC. The note with it: HAEC; for Inhibition of TNF-induced IL6 production: class of % of control IL6 production. The format is cell-based, human. As to the method:
Human aortic endothelial cells (HAEC, Clonetics) were cultured according to manufacturer in growth medium (Clonetics): basal medium containing human epidermal growth factor, hydrocortisone, vascular endothelial growth factor, heparin binding growth factor-B, long R3-insulin-like growth factor-1, ascorbic acid, gentamicin/amphotericin and 5% FBS. These cell were allowed to reach at least 90% confluency before subjected to experimental treatments. Glycated human serum albumin (G-HSA) was from US Biologicals. Tumor necrosis factor α was from R&D Systems.
[…] All treatments, compound-added and controls were carried out in serum free media containing 0.2% albumin. Media from all conditions were collected and used for IL-6 ELISA.
IL-6 ELISA was carried out using human IL-6 DuoSet ELISA development kit as described by manufacturer (R&D Systems). Mouse anti-human Il-6 was used as the capture antibody (2 ug/ml) and biotinylated goat anti-human IL-6 (200 ng/ml) was used as the detection antibody. Culture media were incubated with capture antibody (in 96 well) for 2 h at room temperature. Wells were washed three times with wash buffer (0.05% tween-20 in phosphate buffered saline (PBS) pH 7.4) followed by incubation with detection antibody for 2 h at room temperature. Following three washes wells were incubated with Streptavidin-HRP for 20 min. Color development was read at 450 nm in a Microplate reader.

[1] abbreviates: Homo sapiens, 24 h, Compds tested @ 10 uM, IL6, read-out: % IL6 production compare to TNF stimulation of IL6 (100%).

`CCOC(=O)N1CCN(c2nc(NCC3CCCN3CC)nc(Nc3ccc(OC)c(F)c3)n2)CC1` (stereo not shown) [Compound 64, Ethyl 4-{4-{[(1-ethyl-2-pyrrolidinyl)methyl]amino}-N^6-[(3-fluoro-4-methoxyphenyl)amino]-1,3,5-triazin-2-yl}-1-piperazinecarboxylate]: the activity at 10 µM under setting [1] was 23%.

As to `CCNc1nc(NCC2CCCN2CC)nc(Nc2ccc(OC)c(F)c2)n1` (stereo not shown) [Compound 51, N^2-ethyl-N^4-[(1-ethyl-2-pyrrolidinyl)methyl]-N^6-(3-fluoro-4-methoxyphenyl)-1,3,5-triazine-2,4,6-triamine], under setting [1], the activity at 10 µM amounted to 1%.

As for `CCN1CCC[C@H]1CNc1nc(NC2CCCCCC2)nc(N(CC#N)c2ccccc2)n1` [Compound 143, ({4-cycloheptylamino-6-[((S)-1-ethyl-pyrrolidin-2-ylmethyl)-amino]-1,3,5-triazin-2-yl}-phenyl-amino)-acetonitrile], the activity at 10 µM under setting [1] was determined as 18.9%.

As to `COc1ccc(Nc2nc(NC3CCCCCC3)nc(N3CCCCCC3)n2)cc1F` [Compound 83, N^2-cycloheptyl-N^4-(3-fluoro-4-methoxyphenyl)-6-hexahydro-1H-azepin-1-yl-1,3,5-triazine-2,4-diamine], under setting [1], the activity at 10 µM stood at 18%.

Turning to `COc1ccc(Nc2nc(NC3CC3)nc(NC3CC3)n2)cc1F` [Compound 157, N,N′-dicyclopropyl-N″-(3-fluoro-4-methoxy-phenyl)-1,3,5-triazine-2,4,6-triamine], the activity at 10 µM under setting [1] was 60.5%.

With `COc1ccc(Nc2nc(NCCN3CCCCC3)nc(NC3CCCCCC3)n2)cc1F` [Compound 96, N^2-cycloheptyl-N^4-(3-fluoro-4-methoxyphenyl)-N^6-[2-(1-piperidinyl)ethyl]-1,3,5-triazine-2,4,6-triamine], under setting [1], the activity at 10 µM was found to be 6%.

For the molecule `CCCCN(CCC)c1nc(Nc2ccc(OC)c(Cl)c2)nc(N(C)C2CCNCC2)n1` [Compound 112, N^2-Butyl-N^4-(3-chloro-4-methoxy-phenyl)-N^6-methyl-N^6-piperidin-4-yl-N^2-propyl-1,3,5-triazine-2,4,6-triamine], the “Inhibition of TNF-induced IL6 production” value was “+ (between about 75 and 100% of control IL6 production)”. Further, where the note is “Homo sapiens, 24 h, read-out: % IL6 production compare to TNF stimulation of IL6 (100%), @ 5 uM, IL6”, the activity at 5 µM was 90%.

Consider `CCN1CCCC1CNc1nc(Nc2ccc(OC)c(F)c2)nc(NC2CCCCC2)n1` (stereo not shown) [Compound 55, N^2-cyclohexyl-N^4-[(1-ethyl-2-pyrrolidinyl)methyl]-N^6-(3-fluoro-4-methoxyphenyl)-1,3,5-triazine-2,4,6-triamine], for which the activity at 10 µM under setting [1] came out at 1%.

For `CCN1CCCC1CNc1nc(Nc2ccc(OC)c(F)c2)nc(NC2CCCC2)n1` (stereo not shown) [Compound 56, N^2-cyclopentyl-N^4-[(1-ethyl-2-pyrrolidinyl)methyl]-N^6-(3-fluoro-4-methoxyphenyl)-1,3,5-triazine-2,4,6-triamine], the activity at 10 µM under setting [1] stood at 1%.

In the case of `c1ccc2cc(Nc3nc(NC4CCCCCC4)nc(N4CCOCC4)n3)ccc2c1` [Compound 174, N-Cycloheptyl-6-morpholin-4-yl-N′-naphthalen-2-yl-[1,3,5]triazine-2,4-diamine], the “% IL6 production compare to TNF stimulation to IL6 (100%)” value (from here on “% IL6 production compare”) (Compds tested @ 10 uM) stood at 34%.

With `CCN1CCC[C@H]1CNc1nc(NCC2CCCCC2)nc(Nc2ccc(OC)c(F)c2)n1` [Compound 141, N^2-cyclohexylmethyl-N^4-((S)-1-ethyl-pyrrolidin-2-ylmethyl)-N^6-(3-fluoro-4-methoxyphenyl)-1,3,5-triazine-2,4,6-triamine], under setting [1], the activity at 10 µM was determined as 23.4%.

As for `COc1ccc(Nc2nc(NC3CCCCCC3)nc(N3CCN(C(C)=O)CC3)n2)cc1F` [Compound 88, 6-(4-acetyl-1-piperazinyl)-N^2-cycloheptyl-N^4-(3-fluoro-4-methoxyphenyl)-1,3,5-triazine-2,4-diamine], the activity at 10 µM under setting [1] is 19%.

For the molecule `COc1ccc(Nc2nc(N3CCOCC3)nc(N3CCN(Cc4ccccc4)CC3)n2)cc1` [Compound 173, [4-(4-Benzyl-piperazin-1-yl)-6-morpholin-4-yl-[1,3,5]triazin-2-yl]-(4-methoxy-phenyl)-amine], the “% IL6 production compare” value (Compds tested @ 10 uM) worked out at 47%.

Regarding `CCN1CCCC1CNc1nc(Nc2ccc(OC)c(F)c2)nc(N2CCN(C(C)=O)CC2)n1` (stereo not shown) [Compound 63, 6-(4-acetyl-1-piperazinyl)-N^2-[(1-ethyl-2-pyrrolidinyl)methyl]-N^4-(3-fluoro-4-methoxyphenyl)-1,3,5-triazine-2,4-diamine], under setting [1], the activity at 10 µM worked out at 26%.

`COc1ccc(Nc2nc(NC3CCCCCC3)nc(N(C)Cc3ccccc3)n2)cc1` [Compound 178, N-Benzyl-N′-cycloheptyl-N″-(4-methoxy-phenyl)-N-methyl-[1,3,5]triazine-2,4,6-triamine]: the “% IL6 production compare” value (Compds tested @ 10 uM) is on record as 19%.

On to `COc1ccc(Nc2nc(NC3CCCCCC3)nc(N3CCCC4CCCCC43)n2)cc1F` (stereo not shown) [Compound 84, N^2-cycloheptyl-N^4-(3-fluoro-4-methoxyphenyl)-6-octahydro-1(2H)-quinolinyl-1,3,5-triazine-2,4-diamine], for which the activity at 10 µM under setting [1] was found to be 33%.

In the case of `CCN1CCCC1CNc1nc(Nc2ccc(OC)c(F)c2)nc(NC2CCC(C)CC2)n1` (stereo not shown) [Compound 60, N^2-[(1-ethyl-2-pyrrolidinyl)methyl]-N^4-(3-fluoro-4-methoxyphenyl)-N^6-(4-methylcyclohexyl)-1,3,5-triazine-2,4,6-triamine], the activity at 10 µM under setting [1] came to 1%.

With `COc1ccc(Nc2nc(NCCCCCO)nc(N(C)C3CCN(C)CC3)n2)cc1Cl` [Compound 108, 5-{4-(3-Chloro-4-methoxy-phenylamino)-6-[methyl-(1-methyl-piperidin-4-yl)-amino]-[1,3,5]triazin-2-ylamino}-pentan-1-ol], the “Inhibition of TNF-induced IL6 production” value was “+++ (between about 25 and about 50% of control IL6 production)”. Also, for the setting “Homo sapiens, 24 h, read-out: % IL6 production compare to TNF stimulation of IL6 (100%), Compds tested @ 10 uM, IL6”, the activity at 10 µM was determined as 25%.

`COc1ccc(Nc2nc(NCc3ccccc3)nc(NC3CCCCCC3)n2)cc1F` [Compound 78, N^2-benzyl-N^4-cycloheptyl-N^6-(3-fluoro-4-methoxyphenyl)-1,3,5-triazine-2,4,6-triamine]: under setting [1], the activity at 10 µM came to 47%.

For the molecule `COC[C@@H]1CCCN1c1nc(Nc2ccc(OC)c(F)c2)nc(NC2CCCCCC2)n1` [Compound 86, N^2-cycloheptyl-N^4-(3-fluoro-4-methoxyphenyl)-6-[(2S)-2-(methoxymethyl)-1-pyrrolidinyl]-1,3,5-triazine-2,4-diamine], under setting [1], the activity at 10 µM came to 19%.

For the molecule `COc1ccc(Nc2nc(NC3CCCCCC3)nc(N3CCOCC3)n2)cc1F` [Compound 175, N-Cycloheptyl-N′-(3-fluoro-4-methoxy-phenyl)-6-morpholin-4-yl-[1,3,5]triazine-2,4-diamine], for the setting “Compds tested @ 10 uM”, the “% IL6 production compare” value was found to be 18%.

Turning to `CN1CCC(N(C)c2nc(Nc3ccc4ccccc4c3)nc(NC3CCCCCC3)n2)CC1` [Compound 172, N-Cycloheptyl-N′-methyl-N′-(1-methyl-piperidin-4-yl)-N″-naphthalen-2-yl-[1,3,5]triazine-2,4,6-triamine], under “Compds tested @ 10 uM”, the “% IL6 production compare” value amounted to 18%.

In the case of `COc1ccc(Nc2nc(NC3CCCCCC3)nc(NC(C)(C)C)n2)cc1F` [Compound 77, N^2-(tert-butyl)-N^4-cycloheptyl-N^6-(3-fluoro-4-methoxyphenyl)-1,3,5-triazine-2,4,6-triamine], the activity at 10 µM under setting [1] was 21%.
